Like-named read-outs stand apart in the source and are kept apart here.
How the values were obtained:
COX [1] = conditions: cited from earlier work
COX [2] = system: COX; set-up: method as in PMID 22053353; conditions: read-out: IC50, oxidation of endocannabinoids; cited from earlier work
[3] = target: T1, ram seminal vesicle COX-1 (Ovis aries, UniProt P05979); assay: COX-1 inhibition assay (PGE2 EIA); format: biochemical; conditions: average of at least two independent experiments, triplicates; read-out: IC50 COX-1
T1 construct: ram seminal vesicle COX-1 (1 U) (Sigma–Aldrich); purchased Sigma–Aldrich; host or cells: ram seminal vesicle (tissue of origin)
T1 sequence (P05979 25-600): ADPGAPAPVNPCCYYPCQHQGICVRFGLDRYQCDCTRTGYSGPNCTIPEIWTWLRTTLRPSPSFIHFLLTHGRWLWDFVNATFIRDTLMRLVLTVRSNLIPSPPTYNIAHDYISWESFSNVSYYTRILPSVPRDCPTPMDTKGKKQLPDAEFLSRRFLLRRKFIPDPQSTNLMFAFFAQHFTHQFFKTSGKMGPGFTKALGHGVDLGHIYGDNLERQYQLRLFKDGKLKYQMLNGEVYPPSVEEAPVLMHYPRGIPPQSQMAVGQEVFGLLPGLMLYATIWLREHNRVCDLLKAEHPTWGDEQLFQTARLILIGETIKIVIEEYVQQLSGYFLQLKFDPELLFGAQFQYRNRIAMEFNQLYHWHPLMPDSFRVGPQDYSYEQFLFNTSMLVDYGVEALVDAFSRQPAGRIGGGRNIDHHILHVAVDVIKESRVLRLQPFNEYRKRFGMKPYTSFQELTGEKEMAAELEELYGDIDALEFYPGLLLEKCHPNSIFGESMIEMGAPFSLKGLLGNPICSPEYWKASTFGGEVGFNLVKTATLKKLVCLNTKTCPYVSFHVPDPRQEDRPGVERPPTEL

human recombinant COX-2 = target: T2, human recombinant COX-2 (Homo sapiens, UniProt P35354); assay: COX-2 inhibition assay (PGE2 EIA); format: biochemical; conditions: average of at least two independent experiments, triplicates; read-out: IC50 COX-2
T2 construct: purchased Sigma–Aldrich
T2 sequence (P35354 18-604): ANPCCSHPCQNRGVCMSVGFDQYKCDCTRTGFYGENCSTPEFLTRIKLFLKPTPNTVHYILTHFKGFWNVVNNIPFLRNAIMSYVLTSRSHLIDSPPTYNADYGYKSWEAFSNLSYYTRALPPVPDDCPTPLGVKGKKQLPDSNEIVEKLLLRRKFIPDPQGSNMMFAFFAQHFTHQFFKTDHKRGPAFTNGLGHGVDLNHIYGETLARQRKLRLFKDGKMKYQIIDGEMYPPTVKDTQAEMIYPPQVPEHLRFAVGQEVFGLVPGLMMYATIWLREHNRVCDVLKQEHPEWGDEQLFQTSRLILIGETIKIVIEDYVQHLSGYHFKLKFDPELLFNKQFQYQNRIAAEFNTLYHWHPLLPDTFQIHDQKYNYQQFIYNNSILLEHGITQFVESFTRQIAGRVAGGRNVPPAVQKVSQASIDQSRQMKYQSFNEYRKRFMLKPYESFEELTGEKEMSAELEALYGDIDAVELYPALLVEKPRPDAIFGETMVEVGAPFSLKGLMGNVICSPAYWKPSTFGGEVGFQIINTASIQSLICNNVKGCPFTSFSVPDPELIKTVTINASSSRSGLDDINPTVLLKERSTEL

COX [4] = assay: Biological testing for COX-inhibiting activity, overall outcome on both isoforms; format: biochemical; conditions: for COX isoform selectivity: COX-1 versus COX-2; for Activity: biological testing of this study
mice and rats = system: mice and rats; set-up: method as in earlier work; conditions: ref 1 (Supporting Information), cited from earlier work
U937 cells = system: U937 cells; set-up: method as in PMID 19958764; conditions: stimulated differentiated U937 cells; cited from earlier work

Compound	PGE2 formation from AA (COX [1])	Activity (COX [1]; data from the literature)	IC50 (COX [2])	IC50 [3]	IC50 (human recombinant COX-2)	COX isoform selectivity (COX [4])	Activity (COX [4])	anti-prostatic effects (mice and rats; mice and rats, compared to DES)	estrogenicity, lower compared to DES (mice and rats)	spermatogenesis or fertility (mice and rats; unlike DES)	PGE2-formation (U937 cells)
CC(C)Cc1ccc([C@@H](C)C(=O)O)cc1 [(R)-ibuprofen]	only inhibited at high concentrations	Active [60]	~10 µM								
CCC(c1ccc(O)c(F)c1)C(C)c1ccc(O)c(F)c1 (stereo not drawn) [Bifluranol (1), Bifluranol]				33 ± 7.3 µM	> 20 µM	COX-1 selective	Active	comparable extent to diethylstilbestrol (DES)	approximately 8 fold	did not impair spermatogenesis or fertility	
COc1cc(/C=C2\CCC/C(=C\c3ccc(O)c(OC)c3)C2=O)ccc1O [Cyqualon (3), Cyqualon]				1.5 ± 2.1 µM	> 20 µM	COX-1 selective	Active				did not prevent PGE2-formation

Source: publication PMC4444576, “Prospective performance evaluation of selected common virtual screening tools. Case study: Cyclooxygenase (COX) 1 and 2” (European Journal of Medicinal Chemistry, 2015)
